According to patent US4018777A, “2-Substituted-5-alkyl resorcinols” (Abbott Laboratories, priority 1975, dated 1977):

Legend:
[1] = system: pain threshold to radiant heat on tail (rat tail flick); experiment: Analgesic activity, rat tail flick (RTF); assay type: in vivo, rat (male Sprague-Dawley); conditions: oral, 2 hours after dosing
Method: (§1) The compounds of this invention are useful as analgesic agents, tranquilizers, sedative-hypnotics and anticonvulsants. The compounds are effective at dosages generally of from 1 to 10 mg./kg. of body weight daily. The analgesic activity was established in the standard mouse writhing test [Whittle, Brit. J. Pharmacol., 22, 296 (1964)] and confirmed in the hot plate assay [Woolfe, G. and McDonald, A. J., J. Pharmacol, Exper. Therap., 80, 300 (1944)] and the rat tail flick test.
In testing for analgesic activity by the rat tail flick method described by [F. E. D'Amour and D. L. Smith, J Pharmcol. Exp. Ther. 72, 74 (1941)], the method was modified as follows. Groups of male Sprague-Dawley rats weighing 140-170 g. are prepared by blackening their tails with India ink. Radiant heat is focused on their tails and adjusted so that the normal pain threshholds (time in seconds until an escape response or tail flick occurs) are in the range of 8 to 10 seconds. This is followed by oral administration of the test compound and hourly measurements of the animals' pain threshholds. The analgesic effects are listed in Table I as percent increase over initial pain threshhold 2 hours after dosing, or ED50's.

[2] = system: methamphetamine (Desoxyn)-induced motor activity; experiment: Antipsychotic activity (Rat Desoxyn antagonism), motor activity; assay type: in vivo; conditions: oral, one hour before test; for Antipsychotic activity (Rat Desoxyn antagonism): 10 mg./kg., methamphetamine 3 mg./kg. sc, vs. Desoxyn treated controls
Method: Antipsychotic Activity (Rat Desoxyn Antagonism)
Antipsychotic activity (Desoxyn antagonism) was evaluated in motor activity chambers equipped with photocells. Groups of nine rats were given the compound orally one hour before the test and then administered methamphetamine (Desoxyn) 3 mg./kg. sc, and placed in the chamber. Changes in motor activity were recorded as counts from the photocells and are compared to Desoxyn treated controls.

[3] = system: audiogenic seizure in mice; experiment: Anticonvulsant activity, audiogenic seizure test (mouse); assay type: in vivo, mouse (male O'Grady strain); conditions: 1 hr.; for Anticonvulsant activity, audiogenic seizure: % protection: 100 mg./kg.
Description: Audiogenic Seizure Test (Mouse)
Male O'Grady strain mice (14 to 16 g.) especially bred for susceptibility to audiogenic seizures were used as subjects. The audiogenic apparatus consisted of a wooden box enclosing a metal container with two doorbells attached to the upper section. […] [Ref: N. P. Plotnikoff and D. M. Green, J, Pharmacol. Exp. Ther., 119, 294 (1957)].

[4] = system: acetic acid-induced writhing in mice; experiment: Analgesic activity, acetic acid writhing test (W); assay type: in vivo, mouse (Swiss-Webster female)
Method: as §1
In testing for the analgesic effect of the present compounds, the acetic acid writhing test was made as that described by [B. A. Whittle, Brit. J. Pharmacol 22, 246 (1964)]. Groups of Swiss-Webster female mice were given oral doses of the drug or control vehicle. The use of the intravenous dye was eliminated. One hour later they were given 0.4 ml. of 0.5% HOAc intraperitoneally. The number of writhes occurring in 20 minutes were counted starting 5 minutes after the injection of HOAc. Analgesic activity was reported as percent inhibition of writhing vs. controls or as ED50%.

C=C(C)c1ccncc1-c1c(O)cc(C(C)C(C)CCCCC)cc1O (stereo not drawn) [Compound (VIII), 2-[4-Isopropenyl-3-Pyridyl]-5-(3-Methyl-2-Octyl) Resorcinol]
Analgesic activity, RTF: percent increase over initial pain threshhold ([1]; 40 mg./kg.): 59%
Antipsychotic activity (Rat Desoxyn antagonism), result in words ([2]; dose not stated): Inactive
Anticonvulsant activity, audiogenic seizure: % protection [3]: 100%

CCCCCC(C)C(C)c1cc(O)c(-c2cc(C)ccc2C(C)C)c(O)c1 (stereo not drawn) [Compound (XII), 2-[(2-Isopropyl-5-methyl)phenyl]-5-(3-methyl-2-octyl)resorcinol]
Analgesic activity, RTF: percent increase over initial pain threshhold ([1]; 22 mg./kg.): 45%
Antipsychotic activity (Rat Desoxyn antagonism) [2]: 77%
Anticonvulsant activity, audiogenic seizure: % protection [3]: 60%
Analgesic activity, W(PO): percent inhibition of writhing vs. controls ([4]; 40 mg./kg.): 47%

CCCCCC(C)C(C)c1cc(OC(C)=O)c(-c2cnccc2C(C)C)c(OC(C)=O)c1 (stereo not drawn) [Compound (IX), 1,3-Diacetyl-2-[4-Isopropyl-3-Pyridyl]-5-(3-Methyl-2-Octyl)Resorcinol]
Analgesic activity, RTF: percent increase over initial pain threshhold ([1]; 40 mg./kg.): 20%
Analgesic activity, W(PO): percent inhibition of writhing vs. controls ([4]; 80 mg./kg.): 30%

C=C(C)c1ccc(C)cc1-c1c(OC(C)=O)cc(C(C)C(C)CCCCC)cc1OC(C)=O (stereo not drawn) [Compound (XI), 1,3-Diacetyl-2-[(2-isopropenyl-5-methyl)phenyl]-5-(3-methyl-2-octyl)resorcinol]
Antipsychotic activity (Rat Desoxyn antagonism) [2]: 55%
Anticonvulsant activity, audiogenic seizure: % protection [3]: 70%
Analgesic activity, W(PO): percent inhibition of writhing vs. controls ([4]; 10-40 mg./kg.): 40-50%

CCCCCC(C)C(C)c1cc(O)c(-c2cnccc2C(C)C)c(O)c1 (stereo not drawn) [Compound (X), 2-[4-Isopropyl-3-pyridyl]-5-(3-methyl-2-octyl)resorcinol]
Analgesic activity, RTF: percent increase over initial pain threshhold ([1]; 40 mg./kg.): 53%
Anticonvulsant activity, audiogenic seizure: % protection [3]: 60%
ED50 ([4]; Mus musculus, po): 44 mg/kg

C=C(C)c1ccncc1-c1c(OC(C)=O)cc(C(C)C(C)CCCCC)cc1OC(C)=O (stereo not drawn) [Compound (VII), 1,3-Diacetyl-2-[4-Isopropenyl-3-Pyridyl]-5-(3-Methyl-2-Octyl)Resorcinol]
Analgesic activity, RTF: percent increase over initial pain threshhold ([1]; 20 mg./kg.): 23%
Antipsychotic activity (Rat Desoxyn antagonism) [2]: 66%
ED50 ([3]; Mus musculus, protection, estimated (est.)): ~9 mg/kg
